The values that follow come from article PMC9482650, “Quantitative fragmentomics allow affinity mapping of interactomes” (Nature Communications, 2022).

Like-named read-outs stand apart in the source and are kept apart here. Ends that are not written are not given here.

For one experiment, the target named is SNX27 PDZ (Homo sapiens, UniProt Q96L92). In words: Holdup assay. The class given is binding.
The next experiment deals with SCRIB_1 PDZ (Homo sapiens, UniProt Q14160). In words: Holdup assay. It is filed as binding.
The next experiment deals with DLG1_1 PDZ (Homo sapiens, UniProt Q12959). Nature of the experiment: Holdup assay. It is filed as binding.
A further experiment concerns the target DLG1_2 PDZ (Homo sapiens, UniProt Q12959). Nature of the experiment: Holdup assay. It is filed as binding.
A further experiment has as its target T1, TX1BP3 PDZ (Homo sapiens, UniProt O14907).
T1 sequence (O14907 15-112 limits assumed): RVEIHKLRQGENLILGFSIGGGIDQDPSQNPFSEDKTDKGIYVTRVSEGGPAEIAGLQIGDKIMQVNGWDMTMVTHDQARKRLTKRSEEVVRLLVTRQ
Nature of the experiment: Holdup assay. The class given is binding.

A further experiment deals with HEK293T cells. Nature of the experiment: Label-free MS proteome of stable cell lines expressing HPV16 E6 or E6ΔPBM. It is filed as cell-based, human. To be noted: protein level. In short, it runs like this:
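Confluent HEK293T lysates in HEPES-KOH pH 7.5, 1% Triton X-100 buffer, TCA-precipitated, reduced, alkylated, Lys-C then trypsin digested. nanoLC (90 min gradient) on LTQ-Orbitrap Elite, TOP20 CID data-dependent acquisition; SequestHT search of human SwissProt, 1% FDR. Label-free quantification by peptide XIC intensity, technical triplicates.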

Another experiment deals with T2, SCRIB2 PDZ (Homo sapiens, UniProt Q14160).
T2 sequence (Q14160 862-950 limits assumed): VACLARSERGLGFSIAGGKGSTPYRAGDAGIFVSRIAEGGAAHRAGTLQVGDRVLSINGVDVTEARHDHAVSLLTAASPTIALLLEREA
In words: Holdup assay. It is filed as binding.

The subject of the next experiment is HaCat cell extract preys. In words: PDZ-AP-MS, biotinylated MBP-PDZ baits. It is filed as binding, human. To be noted: for Difference log2: enrichment of prey. On the procedure: (§1) For PDZ-AP-MS experiments, PDZ domains were cloned as His6-AviTag-MBP-PDZ constructs. For co-expression with BirA, E. coli BL21(DE3) cells were co-transformed with His6-AviTag-MBP, or His6-AviTag-MBP-PDZ-coding and PET21a-BirA (Addgene #20857) plasmids. Simultaneously to IPTG induction, 50 µM biotin was added to the media. After cell harvesting, the lysis buffer was also supplemented with 50 µM biotin. Otherwise, expression and double affinity purification was identical as previously described in details.
(§2) For PBM-AP-MS experiments, 30 μl streptavidin resin was mixed with biotin or peptide at 50–60 μM concentration in 6–6.5 resin volume for 60 min to achieve resin saturation. For PDZ-AP-MS experiments, 30 μl streptavidin resin was mixed with biotinylated MBP or MBP-PDZ at 40-50 μM concentration in >1000× resin volume for 60 min to achieve resin saturation. After saturation, resins were washed a single time (ten resin volume, holdup buffer), and were depleted with biotin (1 mM biotin, 5–10 resin volume, 10 min). Finally, resins were washed two times. 0.5 ml 2 mg/ml cell lysate was added to the dry resin (1 mg total input) and were incubated at 4 °C for 2 h. Then, the beads were washed three times with 10 resin volume buffer containing: 50 mM TRIS pH 8.5, 150 mM NaCl, 1% TritonX-100, 10× complete EDTA-free protease inhibitor cocktail, 2 mM EDTA, 1 mM TCEP. Then, the beads were washed two times with ten resin volume buffer containing: 50 mM TRIS pH 8.5, 150 mM NaCl, 1 mM TCEP. Finally, captured protein was eluted from the resin in two steps and the eluted fractions were pooled. For each elution the beads were incubated for 30 min with three resin volume buffer containing: 20 mM TRIS pH8.5, 100 mM NaCl, 500 μM TCEP, 8 M Urea. Between each step, the beads were separated by mild centrifugation and the supernatant was removed by gentle pipetting.
(§3) The samples were precipitated with TCA 20% overnight at 4 °C and centrifuged at 14,000 rpm for 10 min at 4 °C. The protein pellets were washed twice with 1 mL cold acetone and air dried. The protein extracts were solubilized in urea 8 M, reduced with 5 mM TCEP for 30 min, and alkylated with 10 mM iodoacetamide for 30 min in the dark. Double digestion was performed at 37 °C with 500 ng endoproteinase Lys-C for 4 h, followed by fourfold dilution and an overnight digestion with 500 ng trypsin. Peptide mixtures were then desalted on C18 spin-column and dried on Speed-Vacuum.
(§4) Samples were analyzed using an Ultimate 3000 nano-RSLC (Thermo Scientific, San Jose California) coupled in line with a LTQ-Orbitrap ELITE mass spectrometer via a nano-electrospray ionization source (Thermo Scientific, San Jose California). Peptide mixtures were injected in 0.1% TFA on a C18 Acclaim PepMap100 trap-column (75 µm ID × 2 cm, 3 µm, 100 Å, Thermo Fisher Scientific) for 3 min at 5 µL/min with 2% ACN, 0.1% FA in H2O and then separated on a C18 Accucore nano-column (75 µm ID × 50 cm, 2.6 µm, 150 Å, Thermo Fisher Scientific) at 220 nl/min and 38 °C with a 90 min linear gradient from 5% to 30% buffer B (A: 0.1% FA in H2O/B: 99% ACN, 0.1% FA in H2O), regeneration at 5% B. The mass spectrometer was operated in positive ionization mode, in data-dependent mode with survey scans from m/z 350–1500 acquired in the Orbitrap at a resolution of 120,000 at m/z 400. The 20 most intense peaks from survey scans were selected for further fragmentation in the Linear Ion Trap with an isolation window of 2.0 Da and were fragmented by CID with normalized collision energy of 35%. (TOP20CID method) Unassigned and single charged states were excluded from fragmentation. The Ion Target Value for the survey scans (in the Orbitrap) and the MS2 mode (in the Linear Ion Trap) were set to 1E6 and 5E3 respectively and the maximum injection time was set to 100 ms for both scan modes. Dynamic exclusion was set to 20 s after one repeat count with mass width at ±10 ppm. […]

Experiment [1] deals with Jurkat cell extract preys. In words: PDZ-AP-MS, biotinylated MBP-PDZ baits. The class given is binding, human. To be noted: for Difference log2: enrichment of prey. How it is done:
as §1, §2, §3, §4

Where [2] appears, read: PBM motif of the named protein vs SCRIB_1 PDZ, read-out: pKd values – domain-motif, SCRIB_1 (converted).
Where [3] appears, read: PBM motif of the named protein vs DLG1_1 PDZ, read-out: pKd values – domain-motif, DLG1_1 (converted).
Setting [4] is: PBM motif of the named protein vs DLG1_2 PDZ, read-out: pKd values – domain-motif, DLG1_2 (converted).
Setting [5] is: PBM motif of the named protein vs TX1BP3 PDZ, read-out: pKd values – domain-motif, TX1BP3 (converted).
[6] abbreviates: holdup affinity of the PBM peptide of the named protein, sheet PBMcomplexome, lower sub-table, 3.5 appears to be the floor for no detectable binding, read-out: affinity of PBM to TX1BP3 (pKd) (converted).
Setting [7] is: holdup affinity of the PBM peptide of the named protein, sheet PBMcomplexome, lower sub-table, 3.5 appears to be the floor for no detectable binding, read-out: affinity of PBM to SCRIB_1 (pKd) (converted).
Where [8] appears, read: holdup affinity of the PBM peptide of the named protein, sheet PBMcomplexome, lower sub-table.
Setting [9] is: holdup affinity of the PBM peptide of the named protein, sheet PBMcomplexome, lower sub-table, 3.5 appears to be the floor for no detectable binding, read-out: affinity of PBM to SCRIB_2 (pKd) (converted).
Where [10] appears, read: holdup affinity of the PBM peptide of the named protein, sheet PBMcomplexome, lower sub-table, 3.5 appears to be the floor for no detectable binding, read-out: affinity of PBM to DLG1_2 (pKd) (converted).
Setting [11] is: holdup affinity of the PBM peptide of the named protein, sheet PBMcomplexome, lower sub-table, 3.5 appears to be the floor for no detectable binding, read-out: affinity of PBM to DLG1_1 (pKd) (converted).
Where [12] appears, read: PBM motif of the named protein vs SCRIB_2 PDZ, read-out: pKd values – domain-motif, SCRIB_2 (converted).
The mark [13] stands for this setting: bait SCRIB_1 PDZ, fold change of prey.
Setting [14] is: bait SNX27 PDZ, fold change of prey.

Sequence of SCRIB_1 PDZ (Q14160 728-815 limits assumed): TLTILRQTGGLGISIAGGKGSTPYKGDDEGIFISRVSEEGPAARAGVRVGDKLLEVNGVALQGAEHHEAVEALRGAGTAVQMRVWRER

On SNX27 PDZ, `CC(C)C[C@H](NC(=O)[C@@H]1CCCN1C(=O)[C@@H]1CCCN1C(=O)[C@H](CCCCN)NC(=O)[C@H](CO)NC(=O)[C@H](CC(=O)O)NC(=O)CCCCCNC(=O)CCCC[C@@H]1SC[C@@H]2NC(=O)N[C@@H]21)C(=O)N1CCC[C@H]1C(=O)N1CCC[C@H]1C(=O)N[C@@H](CC(=O)O)C(=O)N[C@@H](CCC(=O)O)C(=O)N[C@@H](Cc1c[nH]c2ccccc12)C(=O)N[C@H](C(=O)O)C(C)C` [MERS E] had a Kd of 27.5 µM.
With DLDEEEDTHL [PODXL], the results for the Kd on SCRIB_1 PDZ (setting [2]), at SNX27 PDZ and at DLG1_1 PDZ (setting [3]) were 8.32 µM, 7.08 µM and 234 µM, respectively.
As for DPRNTQTSQI [ABRAXAS2], the Kd on DLG1_2 PDZ (setting [4]) is 145 µM; on SCRIB_1 PDZ (setting [2]) it was 95.5 µM; at TX1BP3 PDZ (setting [5]), 195 µM; at SNX27 PDZ it was 91.2 µM; at DLG1_1 PDZ (setting [3]), 324 µM.
Consider DRIQSCLSDA [SBF1], for which the Kd on TX1BP3 PDZ (setting [6]) is 91.2 µM.
With EALLQMESVA [CAVIN3], the Kd at SCRIB_1 PDZ (setting [7]) was 275 µM; on SNX27 PDZ (setting [8]), 74.1 µM.
On to ELSATVTTDC [TRIP6], for which the Kd on DLG1_2 PDZ (setting [4]) was 214 µM; at SCRIB_1 PDZ (setting [2]) it was 33.1 µM; at TX1BP3 PDZ (setting [5]), 331 µM; on SNX27 PDZ, 26.9 µM.
Take ESYT2: in the experiment on HEK293T cells (E6 cell line vs control), the “Difference log2 E6/Ctrl” value is reported as -0.8847 and the “Ratio E6/Ctrl” value was 0.5416. In addition, in the experiment with HEK293T cells (dPBM cell line vs E6 cell line), the “Difference log2 dPBM/E6” value was -0.2136 and the “Ratio dPBM/E6” value came to 0.8624. For the same compound, in the experiment on HEK293T cells (dPBM cell line vs control), the “Difference log2 dPBM/Ctrl” value is -1.098 and the “Ratio dPBM/Ctrl” value was 0.4671.
Regarding GGPKEEESPV [SLC16A1], the Kd at DLG1_2 PDZ (setting [4]) is 275 µM; at SCRIB_1 PDZ (setting [2]), 6.61 µM; on SNX27 PDZ it was 5.37 µM.
In the case of HSATSVHTSV [MTMR1], the Kd at SCRIB2 PDZ (setting [9]) was 112 µM; at DLG1_2 PDZ (setting [10]) it was 12.6 µM; on SCRIB_1 PDZ (setting [7]), 162 µM; at TX1BP3 PDZ (setting [6]) it was 158 µM; on SNX27 PDZ (setting [8]) it was 110 µM; at DLG1_1 PDZ (setting [11]) it was 55 µM.
Take NLQEHSTTSV [RSBN1]: the Kd at DLG1_2 PDZ (setting [10]) was 102 µM; at SCRIB_1 PDZ (setting [7]), 263 µM; at TX1BP3 PDZ (setting [6]), 107 µM; at SNX27 PDZ (setting [8]) it was 3.31 µM; on DLG1_1 PDZ (setting [11]) it was 316 µM.
Take PKMKLNETSF [SHKBP1]: the values for the Kd at SCRIB_1 PDZ (setting [2]) and on SNX27 PDZ were 49 µM and 2.88 µM, respectively.
With SPLHSLETSL [ATP2B1], the Kd is 53.7 µM at SCRIB2 PDZ (setting [12]); 21.4 µM on DLG1_2 PDZ (setting [4]); 4.37 µM at SCRIB_1 PDZ (setting [2]); 35.5 µM at TX1BP3 PDZ (setting [5]); 3.31 µM at SNX27 PDZ; 75.9 µM at DLG1_1 PDZ (setting [3]).
On to TJP1, for which the “Difference log2” value worked out at 11.6713 in the experiment on HaCat cell extract preys (bait DLG1_1 PDZ vs MBP), 5.351 with HaCat cell extract preys (bait SCRIB_1 PDZ vs MBP) and 10.4278 with HaCat cell extract preys (bait SNX27 PDZ vs MBP). Besides, in the experiment on HaCat cell extract preys (bait DLG1_1 PDZ, fold change of prey), the “Ratio DLG1_1/MBP” value is recorded as 3261.52. Further, the “Ratio SCRIB_1/MBP” value in the experiment with HaCat cell extract preys (setting [13]) amounted to 40.8237. The “Ratio SNX27/MBP” value in the experiment with HaCat cell extract preys (setting [14]) is recorded as 1377.49.
Take VIM: the “Difference log2” value in experiment [1] (bait SCRIB_1 PDZ vs MBP) was found to be 7.128; in experiment [1] (bait SNX27 PDZ vs MBP), 6.235; in experiment [1] (bait TX1BP3 PDZ vs MBP) it was 7.255. Further, in [1] (setting [13]), the “Ratio SCRIB_1/MBP” value was determined as 139.918. Besides, the “Ratio SNX27/MBP” value in experiment [1] (setting [14]) is recorded as 75.3373. Also, the “Ratio TX1BP3/MBP” value in experiment [1] (bait TX1BP3 PDZ, fold change of prey) is 152.718.
Turning to VLRLQSETSV [VANGL1], the Kd at SCRIB2 PDZ (setting [12]) is 19.1 µM; on DLG1_2 PDZ (setting [4]) it was 13.8 µM; at SCRIB_1 PDZ (setting [2]), 2.95 µM; at TX1BP3 PDZ (setting [5]), 61.7 µM; at SNX27 PDZ, 2 µM; on DLG1_1 PDZ (setting [3]) it was 35.5 µM.
With YLEPVLSSEL [ATP2A2], the Kd on SCRIB2 PDZ (setting [9]) was 275 µM; at SCRIB_1 PDZ (setting [7]), 41.7 µM; at TX1BP3 PDZ (setting [6]), 115 µM; on SNX27 PDZ (setting [8]) it was 75.9 µM.
